From patent publication US20100040615A1, “Digalactolipidic Antigen Exposed on the Surface of Apicomplex Parasites, and Diagnostic and Therapeutic Use Thereof” (COMMISSARIAT A L'ENERGIE ATOMIQUE, priority 2007, published 2010) come the findings set out here.

The test in a line: Immunization of animals with purified galactolipid, sera tested for antibodies. The format is in vivo, rabbits and rat. The settings on record: five immunizations, Freund's adjuvant, sera taken at D57. As to the method: Two rabbits and one rat were immunized with purified DGDG ([…]), according to the following protocol: • a first immunization (D0) by multisite subcutaneous injection (total volume of 1 ml) of 0.5 mg of antigen in 0.5 ml of a solution of NaCl (0.9%), emulsified in 0.5 ml of complete Freund's adjuvant, • a second immunization (D10) by subcutaneous (1 ml) and intramuscular (0.5 ml) injection of 0.5 mg of antigen in 0.75 ml of a solution of NaCl (0.9%), emulsified in 0.75 ml of incomplete Freund's adjuvant, • a third immunization (D21) by subcutaneous (1 ml) and intramuscular (0.5 ml) injection of 0.5 mg of antigen in 0.75 ml of a solution of NaCl (0.9%), emulsified in 0.75 ml of incomplete Freund's adjuvant, • a fourth immunization (D36) by intramuscular (0.5 ml) and intravenous (0.5 ml) injection: 0.17 mg of antigen in 0.25 ml of a solution of NaCl (0.9%), emulsified in 0.25 ml of incomplete Freund's adjuvant, injected intramuscularly, and 0.33 mg of antigen in 0.5 ml of a solution of NaCl (0.9%), injected intravenously, and • a fifth immunization (D50) by intramuscular (0.5 ml) and intravenous (0.5 ml) injection: 0.17 mg of antigen in 0.25 ml of a solution of NaCl (0.9%), emulsified in 0.25 ml of incomplete Freund's adjuvant, injected intramuscularly, and 0.33 mg of antigen in 0.5 ml of a solution of NaCl (0.9%), injected intravenously. […]

For the substance “1,2-diacyl-(α-D-galactopyranosyl-(1→6)-β-D-galactopyranosyl-(1′→3))-sn-glycerol [DGDG]”, the “induction of active serum (antibodies against the immunizing lipid)” value is recorded as “made it possible to obtain active sera containing antibodies that recognize DGDG”. For monogalactosyldiacylglycerol [MGDG], the “induction of active serum (antibodies against the immunizing lipid)” value is “did not make it possible to obtain active serum”.
